Test results taken from patent US7750013B2, “N-oxides as prodrugs of piperazine and piperidine derivatives” (Solvay Pharmaceuticals, B.V., priority 2005, dated 2010).
pEC50, pKi: −log10 of the molar value.

How the values were obtained:
β1-adrenergic = β1-adrenergic (Homo sapiens, UniProt P08588); assay: In vitro receptor affinity, β1-adrenergic; assay type: binding
Experimental: (§1) The binding data collected in the table below (Example 5: pharmacological test results) were either obtained by CEREP (128, rue Danton, 92500 Rueil-Malmaison, France) or at Solvay Pharmaceuticals B.V. (C. J. van Houtenlaan 36, 1381 CP Weesp, The Netherlands), using well documented standard procedures. The affinities for dopamine-D2 and 5-HT1A receptors for instance, was measured as described by Creese I, Schneider R and Snyder S H, [^3H]-Spiroperidol labels dopamine receptors in rat pituitary and brain, Eur J Pharmacol […], 46: 377-381 and Gozlan H, El Mestikawy S, Pichat L, Glowinsky J and Hamon M, 1983, Identification of presynaptic serotonin autoreceptors using a new ligand ^3H-PAT, Nature 1983, 305: 140-142.

Dopamine-D2S = Dopamine-D2S (Homo sapiens, UniProt P14416); assay: In vitro receptor affinity, Dopamine-D2S; assay type: binding
Experimental: as §1

[1] = molecular target: T1, Human dopamine-D3 receptor (Homo sapiens, UniProt P35462); assay: In vitro functional receptor activity; assay type: cell-based
T1 construct: expressed in transfected cells

[2] = test system: 6-OH-dopamine induced turning behavior in rats; assay: 6-OH-dopamine induced turning behavior in rats; assay type: in vivo; conditions: Rattus norvegicus, po, read-out: Antagonism of 6-OH dopamine induced turning behavior after oral dosing: ED50
Experimental: 6-OH-dopamine induced turning behavior in rats (Ungerstedt U, 6-OH-DA induced degeneration of central monoamine neurons, Eur. J. Pharmacol. 1968 5: 107-110). Specifically:
Male rats (Wistar, Harlan, Netherlands; 400-500 g at time of experiment) are housed in a temperature (20-21±2° C.) and humidity controlled environment and receive water ad libitum except during experimental sessions. Food is restricted to approximately 15 g per rat per day. A 12-hour light-dark cycle (lights on 07.00-19.00 hour) is used. All experimental procedures are conducted in accordance with Dutch law and conform to local animal care and use committee stipulations.
Unilateral 6-hydroxydopamine (6-OHDA) lesions of the substantia nigra zona compacta are performed using a stereotaxic procedure. […] Good turning rats are defined as those which elicited at least 20 contralateral turns following amphetamine (2.5 mg/kg sc) in the 5 min time epoch beginning 25 min after administration and a mean of at least 20 contralateral turns recorded over a 30 min period after administration of apomorphine (0.25 mg/kg s.c.). […]
Following statistical randomization of the treatment groups rats are pretreated with compounds of the invention (0.1-3 mg/kg p.o.) or vehicle (2 ml/kg) and placed in the rotameters the contralateral rotational behaviour is then measured. […]

5-HT1A = 5-HT1A (Homo sapiens, UniProt P08908); assay: In vitro receptor affinity, 5-HT1A; assay type: binding
Experimental: as §1

μ-opiate = μ-opiate (Rattus norvegicus, UniProt P33535); assay: In vitro receptor affinity, μ-opiate; assay type: binding
Experimental: as §1

β2-adrenergic = β2-adrenergic (Homo sapiens, UniProt P07550); assay: In vitro receptor affinity, β2-adrenergic; assay type: binding
Experimental: as §1

Dopamine-D4 = Dopamine-D4 (Homo sapiens, UniProt P21917); assay: In vitro receptor affinity, Dopamine-D4; assay type: binding
Experimental: as §1

5-HT2A = 5-HT2A (Homo sapiens, UniProt P28223); assay: In vitro receptor affinity, 5-HT2A; assay type: binding
Experimental: as §1

κ-opiate = κ-opiate (Rattus norvegicus, UniProt P34975); assay: In vitro receptor affinity, κ-opiate; assay type: binding
Experimental: as §1

Dopamine-D2 receptor = assay: Apomorphine-induced climbing behaviour in mice; assay type: in vivo
Experimental: In Vivo Animal Model for Dopamine-D2 Receptor (Ant)Agonistic Activity
Apomorphine-induced climbing behaviour in mice (Costall B, Naylor R J and Nohria V, Differential actions of typical and atypical agents on two behavioural effects of apomorphine in the mouse, Brit J Pharmacol 1978, 63: 381-382).
For oral (p.o.) administration: to the desired quantity (0.5-5 mg) of the solid test compound in a glass tube, some glass beads were added and the solid was milled by vortexing for 2 minutes. After addition of 1 ml of a solution of 1% methylcellulose in water and 2% (v/v) of Poloxamer 188 (Lutrol F68), the compound was suspended by vortexing for 10 minutes. The pH was adjusted to 7. Remaining particles in the suspension were further suspended by using an ultrasonic bath.
For intravenous (i.v.) administration: compounds were dissolved in physiological saline (0.9% NaCl) and the pH was adjusted to 7.

α2C-adrenergic = α2C-adrenergic (Homo sapiens, UniProt P18825); assay: In vitro receptor affinity, α2C-adrenergic; assay type: binding
Experimental: as §1

5-HT3 = 5-HT3 (Rattus norvegicus, UniProt P35563); assay: In vitro receptor affinity, 5-HT3; assay type: binding
Experimental: as §1

α1A-adrenergic = α1A-adrenergic (Rattus norvegicus, UniProt P43140); assay: In vitro receptor affinity, α1A-adrenergic; assay type: binding
Experimental: as §1

T1 sequence (P35462 whole entry): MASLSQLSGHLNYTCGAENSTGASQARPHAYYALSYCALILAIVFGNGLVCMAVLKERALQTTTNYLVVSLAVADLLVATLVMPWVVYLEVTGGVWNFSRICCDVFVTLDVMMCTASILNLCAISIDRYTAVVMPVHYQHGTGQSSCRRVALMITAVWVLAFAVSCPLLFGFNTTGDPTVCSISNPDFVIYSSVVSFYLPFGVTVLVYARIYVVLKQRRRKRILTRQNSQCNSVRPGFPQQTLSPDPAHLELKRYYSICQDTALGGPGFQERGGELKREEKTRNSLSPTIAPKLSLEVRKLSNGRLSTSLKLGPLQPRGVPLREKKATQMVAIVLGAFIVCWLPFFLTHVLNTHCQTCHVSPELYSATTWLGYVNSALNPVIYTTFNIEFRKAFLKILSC
Sequence of Dopamine-D4 (P21917 whole entry): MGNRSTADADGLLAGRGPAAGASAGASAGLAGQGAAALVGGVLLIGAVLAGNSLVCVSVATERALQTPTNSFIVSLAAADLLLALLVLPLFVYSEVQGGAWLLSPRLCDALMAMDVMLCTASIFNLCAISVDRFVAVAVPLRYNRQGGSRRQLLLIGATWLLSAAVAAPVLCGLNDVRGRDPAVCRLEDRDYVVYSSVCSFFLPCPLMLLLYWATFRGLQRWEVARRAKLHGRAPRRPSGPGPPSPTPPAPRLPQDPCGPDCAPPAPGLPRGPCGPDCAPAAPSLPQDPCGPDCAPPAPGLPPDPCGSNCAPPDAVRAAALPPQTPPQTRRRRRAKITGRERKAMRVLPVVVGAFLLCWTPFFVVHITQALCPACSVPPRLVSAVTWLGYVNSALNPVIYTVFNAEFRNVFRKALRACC
Sequence of Dopamine-D2S (P14416 1-414 isoform P14416-2): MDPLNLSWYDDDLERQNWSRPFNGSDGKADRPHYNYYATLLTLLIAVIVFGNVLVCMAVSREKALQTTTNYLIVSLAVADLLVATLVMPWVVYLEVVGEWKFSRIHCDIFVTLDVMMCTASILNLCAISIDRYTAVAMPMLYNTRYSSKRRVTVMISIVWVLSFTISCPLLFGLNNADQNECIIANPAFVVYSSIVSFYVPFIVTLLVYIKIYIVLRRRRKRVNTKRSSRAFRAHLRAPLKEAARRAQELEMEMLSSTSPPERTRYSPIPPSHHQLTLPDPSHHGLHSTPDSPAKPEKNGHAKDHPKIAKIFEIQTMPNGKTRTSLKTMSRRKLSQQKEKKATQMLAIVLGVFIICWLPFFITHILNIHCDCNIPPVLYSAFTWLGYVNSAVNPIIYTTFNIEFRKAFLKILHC
Sequence of 5-HT2A (P28223 whole entry): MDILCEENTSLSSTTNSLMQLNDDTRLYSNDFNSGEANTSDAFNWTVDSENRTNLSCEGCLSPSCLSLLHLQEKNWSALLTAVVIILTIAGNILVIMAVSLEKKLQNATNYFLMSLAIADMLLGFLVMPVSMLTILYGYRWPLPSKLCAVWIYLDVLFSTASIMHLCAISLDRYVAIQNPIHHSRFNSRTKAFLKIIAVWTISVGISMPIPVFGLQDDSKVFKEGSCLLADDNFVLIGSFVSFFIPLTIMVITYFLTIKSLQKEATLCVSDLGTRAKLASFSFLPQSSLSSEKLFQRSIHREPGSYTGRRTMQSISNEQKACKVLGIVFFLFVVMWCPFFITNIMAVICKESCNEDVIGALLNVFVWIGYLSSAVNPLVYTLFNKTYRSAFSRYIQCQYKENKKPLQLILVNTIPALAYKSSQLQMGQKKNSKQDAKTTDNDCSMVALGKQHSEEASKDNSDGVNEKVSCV
Sequence of α1A-adrenergic (P43140 whole entry): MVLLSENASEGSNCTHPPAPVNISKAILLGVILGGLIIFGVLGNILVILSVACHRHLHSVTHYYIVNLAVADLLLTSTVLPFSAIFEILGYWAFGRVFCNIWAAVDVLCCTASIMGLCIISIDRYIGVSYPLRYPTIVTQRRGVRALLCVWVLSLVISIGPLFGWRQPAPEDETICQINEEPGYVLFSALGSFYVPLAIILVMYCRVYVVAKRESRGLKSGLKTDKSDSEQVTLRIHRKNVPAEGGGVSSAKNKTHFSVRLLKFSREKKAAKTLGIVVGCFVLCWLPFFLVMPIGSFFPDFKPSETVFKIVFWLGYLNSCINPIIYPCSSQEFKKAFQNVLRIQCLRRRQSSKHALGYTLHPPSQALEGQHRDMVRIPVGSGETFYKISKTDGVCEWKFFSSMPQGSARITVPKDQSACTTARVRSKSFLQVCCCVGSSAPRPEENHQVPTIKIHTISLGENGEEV
Sequence of κ-opiate (P34975 whole entry): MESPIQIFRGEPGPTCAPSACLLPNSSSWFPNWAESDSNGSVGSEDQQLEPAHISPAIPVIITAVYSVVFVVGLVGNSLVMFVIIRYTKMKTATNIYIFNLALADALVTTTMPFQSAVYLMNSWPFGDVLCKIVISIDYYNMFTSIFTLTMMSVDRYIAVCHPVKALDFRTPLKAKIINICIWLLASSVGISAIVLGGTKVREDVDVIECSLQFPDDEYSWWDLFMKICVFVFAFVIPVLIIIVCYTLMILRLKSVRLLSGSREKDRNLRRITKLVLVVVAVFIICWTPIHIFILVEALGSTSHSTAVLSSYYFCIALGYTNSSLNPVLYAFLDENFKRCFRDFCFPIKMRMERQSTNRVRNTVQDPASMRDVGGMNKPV
Sequence of 5-HT1A (P08908 whole entry): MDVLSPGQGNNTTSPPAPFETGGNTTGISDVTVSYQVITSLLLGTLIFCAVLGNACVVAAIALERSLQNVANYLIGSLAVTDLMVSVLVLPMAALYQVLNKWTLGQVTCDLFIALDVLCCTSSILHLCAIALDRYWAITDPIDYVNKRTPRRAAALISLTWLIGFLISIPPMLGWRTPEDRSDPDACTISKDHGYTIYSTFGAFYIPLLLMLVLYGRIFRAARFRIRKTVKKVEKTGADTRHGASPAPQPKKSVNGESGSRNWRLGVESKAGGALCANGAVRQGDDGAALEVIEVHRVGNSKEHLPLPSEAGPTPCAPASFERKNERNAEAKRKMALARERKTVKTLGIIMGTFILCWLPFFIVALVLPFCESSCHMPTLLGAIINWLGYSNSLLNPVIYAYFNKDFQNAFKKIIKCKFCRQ
Sequence of α2C-adrenergic (P18825 whole entry): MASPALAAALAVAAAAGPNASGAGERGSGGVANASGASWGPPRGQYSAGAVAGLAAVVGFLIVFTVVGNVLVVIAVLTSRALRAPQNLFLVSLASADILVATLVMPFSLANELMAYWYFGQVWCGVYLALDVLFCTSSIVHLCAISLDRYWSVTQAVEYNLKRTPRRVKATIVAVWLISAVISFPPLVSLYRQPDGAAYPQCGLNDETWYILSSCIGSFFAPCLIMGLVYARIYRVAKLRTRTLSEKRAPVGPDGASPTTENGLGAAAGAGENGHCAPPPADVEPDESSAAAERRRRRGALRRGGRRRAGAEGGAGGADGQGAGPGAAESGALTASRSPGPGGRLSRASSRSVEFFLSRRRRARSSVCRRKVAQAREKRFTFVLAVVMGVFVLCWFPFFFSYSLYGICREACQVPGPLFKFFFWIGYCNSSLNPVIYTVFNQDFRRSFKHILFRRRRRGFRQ
Sequence of μ-opiate (P33535 whole entry): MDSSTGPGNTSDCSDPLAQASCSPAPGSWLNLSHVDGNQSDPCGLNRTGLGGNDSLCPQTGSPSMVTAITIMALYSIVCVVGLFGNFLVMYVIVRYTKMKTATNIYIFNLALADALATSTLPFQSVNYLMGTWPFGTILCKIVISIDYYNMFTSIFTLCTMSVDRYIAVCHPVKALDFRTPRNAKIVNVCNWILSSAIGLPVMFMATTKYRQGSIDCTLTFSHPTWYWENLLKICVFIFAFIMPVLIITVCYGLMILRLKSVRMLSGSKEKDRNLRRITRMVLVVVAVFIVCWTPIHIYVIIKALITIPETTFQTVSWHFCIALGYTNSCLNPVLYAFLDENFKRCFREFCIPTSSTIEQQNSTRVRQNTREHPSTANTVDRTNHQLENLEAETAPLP
Sequence of β2-adrenergic (P07550 whole entry): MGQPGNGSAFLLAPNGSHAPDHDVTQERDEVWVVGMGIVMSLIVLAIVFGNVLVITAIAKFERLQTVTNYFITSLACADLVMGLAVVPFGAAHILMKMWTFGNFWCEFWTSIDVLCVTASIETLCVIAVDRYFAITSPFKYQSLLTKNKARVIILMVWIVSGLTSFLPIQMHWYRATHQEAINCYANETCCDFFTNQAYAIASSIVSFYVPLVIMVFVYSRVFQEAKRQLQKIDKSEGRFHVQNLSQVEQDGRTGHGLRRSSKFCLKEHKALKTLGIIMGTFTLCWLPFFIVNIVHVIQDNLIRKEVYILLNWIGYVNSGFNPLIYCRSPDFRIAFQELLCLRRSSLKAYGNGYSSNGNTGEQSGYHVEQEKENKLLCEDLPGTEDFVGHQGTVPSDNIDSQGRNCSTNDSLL
Sequence of 5-HT3 (P35563 24-483): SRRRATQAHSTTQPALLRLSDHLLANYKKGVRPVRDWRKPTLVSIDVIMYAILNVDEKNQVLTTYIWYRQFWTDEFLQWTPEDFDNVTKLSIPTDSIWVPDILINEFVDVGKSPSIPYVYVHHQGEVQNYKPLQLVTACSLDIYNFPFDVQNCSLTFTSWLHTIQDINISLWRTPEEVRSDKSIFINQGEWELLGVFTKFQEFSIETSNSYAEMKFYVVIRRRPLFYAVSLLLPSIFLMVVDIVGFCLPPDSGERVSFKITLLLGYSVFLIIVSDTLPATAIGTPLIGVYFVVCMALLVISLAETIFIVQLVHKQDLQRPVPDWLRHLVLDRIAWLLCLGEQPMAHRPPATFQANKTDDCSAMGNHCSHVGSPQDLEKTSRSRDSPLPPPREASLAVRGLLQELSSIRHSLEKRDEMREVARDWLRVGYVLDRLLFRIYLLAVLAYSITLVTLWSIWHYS

## C[N+]1([O-])CCN(c2cccc3[nH]c(=O)oc23)CC1 [N-oxide of SLV308, N-Oxide of SLV308]
β1-adrenergic
  pKi: < 6.00
Dopamine-D2S
  pKi: < 6.00
[1]
  pEC50: 7.30
  Human dopamine-D3 receptor intrinsic activity (α): 0.60
  Kb: > 10 µM
[2]
  ED50: < 1 mg/kg
other
  melting point: 242 to 243 °C
5-HT1A
  pKi: 6.70
μ-opiate
  pKi: < 6.00
β2-adrenergic
  pKi: < 6.00
Dopamine-D4
  pKi: 6.89
Dopamine-D4; potency ratio
  Factor by which affinities for dopamine-D4 receptors differ (N-oxide vs SLV308): 10
5-HT2A
  pKi: < 6.00
κ-opiate
  pKi: < 6.00
Dopamine-D2 receptor; administered intravenously
  In vivo activity compared with the parent compound (in words): approximately one tenth of the activity of the parent compound
Dopamine-D2 receptor; mice, i.v.
  Antagonism of apomorphine induced climbing behavior after intravenous dosing: ED50: 0.90 mg/kg
Dopamine-D2 receptor; mice, oral
  Antagonism of apomorphine induced climbing behavior after oral dosing: ED50: 0.79 mg/kg
Dopamine-D2 receptor; oral administration
  In vivo activity compared with the parent compound (in words): equipotent with SLV308
α2C-adrenergic
  pKi: 6.40
5-HT3
  pKi: < 6.00
α1A-adrenergic
  pKi: 6.20
